# Reference: US12606543B2, “Indole derivatives as serotonergic agents useful for the treatment of disorders related thereto” (priority 2023, dated 2026)
# pEC50: −log10 of the molar value. Read-outs that look alike come from different tables or passages of the source.
# Legend:
# [1] = Liver microsomes stability, human; type: in vitro ADME; conditions: for CLint scaled at 2 μM: read-out: Scaled-up CLint
# Protocol: (§1) The objective of this study was to estimate in vitro metabolic stability of exemplary compounds of Formula (I) or a pharmaceutically acceptable salt, solvate, and/or prodrug thereof in pooled human, male rat, and male mouse liver microsomes. The concentrations of compounds in reaction systems were evaluated by LC-MS/MS for estimating the stability in pooled human, male rat, and male mouse liver microsomes. The in vitro intrinsic clearances of test compounds were determined as well.
# (§2) A master solution in the “Incubation Plate” containing phosphate buffer, ultra-pure H2O, MgCl2 solution and liver microsomes was made according to Table 33. The mixture was pre-warmed at 37° C. water bath for 5 minutes.
# (§3) 40 μL of 10 mM nicotinamide adenine dinucleotide phosphate (NADPH) solution was added to each well. The final concentration of NADPH was 1 mM. The negative control samples were prepared by replacing NADPH with 40 μL of ultra-pure H2O. Samples were prepared in duplicate. Negative controls were prepared in singlet.
# (§4) The reaction was started with the addition of 4 μL of 200 μM exemplary test compounds of the disclosure or control compounds to each master solution to get the final concentration of 2 μM. This study was performed in duplicate.
# (§5) Aliquots of 50 μL were taken from the reaction solution at 0, 15, 30, 45, and 60 minutes. The reaction solutions were stopped by the addition of 4 volumes of cold methanol with IS (100 nM alprazolam, 200 nM imipramine, 200 nM labetalol, and 2 μM ketoprofen). Samples were centrifuged at 3,220 g for 40 minutes. Aliquot of 90 μL of the supernatant was mixed with 90 μL of ultra-pure H2O and then was used for LC-MS/MS analysis.
# (§6) LC/MS analysis was performed for all samples from this study using a Shimadzu liquid chromatograph separation system equipped with degasser DGU-20A5R; solvent delivery unit LC-30AD; system controller SIL-30AC; column oven CTO-30A; CTC Analytics HTC PAL System. Mass spectrometric analysis was performed using a Triple Quad™ 5500 instrument.
# (§7) All calculations were carried out using Microsoft Excel. Peak area ratios of test compound to internal standard (listed in the below table) were determined from extracted ion chromatograms.
# (§8) All calculations were carried out using Microsoft Excel. Peak areas were determined from extracted ion chromatograms. The slope value, k, was determined by linear regression of the natural logarithm of the remaining percentage of the parent drug vs. incubation time curve.
# (§9) The in vitro half-life (in vitro t1/2) was determined from the slope value:
# (§10) Conversion of the in vitro t1/2 (min) into the in vitro intrinsic clearance (in vitro CLint, in μL/min/mg proteins) was done using the following equation (mean of duplicate determinations): […]
# as §1, with “solvate” for “solvate,”, “rat” for “rat,”
# (§11) A master solution in the “Incubation Plate” containing phosphate buffer, ultra-pure H2O, MgCl2 solution and liver microsomes was made according to Table 67. The mixture was pre-warmed at 37° C. water bath for 5 minutes.
# (§12) 40 μL of 10 mM NADPH solution was added to each well. The final concentration of NADPH was 1 mM. The negative control samples were prepared by replacing NADPH with 40 μL of ultra-pure H2O. Samples were prepared in duplicate. Negative controls were prepared in singlet
# Aliquots of 50 μL were taken from the reaction solution at 0, 15, 30, 45 and 60 minutes. The reaction solutions were stopped by the addition of 4 volumes of cold methanol with IS (100 nM alprazolam, 200 nM imipramine, 200 nM labetalol and 2 μM ketoprofen).
# [2] = Liver microsomes stability, rat; type: in vitro ADME; conditions: for half-life at 2 μM / microsomal CLint at 2 μM / CLint scaled at 2 μM: male; for CLint scaled at 2 μM: read-out: Scaled-up CLint
# Protocol: as §1, §2, §3, §4, §5, §6, §7, §8, §9, §10
# as §1, with “solvate” for “solvate,”, “rat” for “rat,”
# as §11, §12
# (§13) Aliquots of 50 μL were taken from the reaction solution at 0, 15, 30, 45 and 60 minutes. The reaction solutions were stopped by the addition of 4 volumes of cold methanol with IS (100 nM alprazolam, 200 nM imipramine, 200 nM labetalol and 2 μM ketoprofen). […]
# [3] = Liver microsomes stability, mouse; type: in vitro ADME; conditions: for half-life at 2 μM / microsomal CLint at 2 μM / CLint scaled at 2 μM: male; for CLint scaled at 2 μM: read-out: Scaled-up CLint
# Protocol: as §1, §2, §3, §4, §5, §6, §7, §8, §9, §10
# as §1, with “solvate” for “solvate,”, “rat” for “rat,”
# as §11, §12, §13
# [4] = molecular target: human 5-HT2B receptor (Homo sapiens, UniProt P41595); assay: Human 5-HT2B FLIPR calcium mobilization assay; type: cell-based; design: expressed in transfected cells; host or cells: HEK293; conditions: for Emax (% of serotonin): HEK293 cells, relative to maximum response of serotonin
# Protocol: Compound potency (EC50) and efficacy (Max response) against the human 5-HT2B receptor in stably transfected HEK293 cells were determined in a calcium mobilization-based assay.
# Cells were seeded in a total volume of 20 μL into white walled, 384-well microplates and incubated at 37° C. overnight. Prior to testing, cell plating media was exchanged with 20 μL of Dye Loading buffer (HBSS+20 mM HEPES containing 1× Dye, 1× Additive A, and 2.5 mM Probenecid). Plates were incubated at 37° C. for 45 mins followed by 15 mins at room temperature.
# (§14) 10 μL of assay buffer (HBSS+20 mM HEPES) were added to cells. Intermediate dilution of sample stocks was performed to generate 4× samples in assay buffer. Assay plates and compound plates were loaded into the FLIPR instrument. 10 μL of sample was added using the FLIPR onboard robotics after 5 seconds of starting calcium measurement. A final assay vehicle concentration was 1%. The results are expressed as percent efficacy relative to the maximum response of the control ligand (serotonin) in Table 12.
# Compound potency (EC50) and efficacy (Max response) against the human 5-HT2B receptor in stably transfected HE K293 cells was determined in a calcium mobilization-based assay.
# as §14, with “HEPES) was” for “HEPES) were”, “of samples were” for “of sample was”, “5 secs” for “5 seconds”, “measurement. The” for “measurement. A”, “Table 62.” for “Table 12.”
# [5] = human liver microsomes, 2 μM compound, 0.5 mg/mL microsomes
# [6] = human liver microsomes, With Cofactors, 0 min
# [7] = human liver microsomes, With Cofactors, 30 min
# [8] = human liver microsomes, With Cofactors, 60 min
# [9] = human liver microsomes, Without Cofactors, 0 min
# [10] = human liver microsomes, Without Cofactors, 30 min
# [11] = human liver microsomes, Without Cofactors, 60 min
# [12] = rat liver microsomes, 2 μM compound, 0.5 mg/mL microsomes
# [13] = rat liver microsomes, With Cofactors, 30 min
# [14] = rat liver microsomes, With Cofactors, 60 min
# [15] = rat liver microsomes, Without Cofactors, 30 min
# [16] = rat liver microsomes, Without Cofactors, 60 min
# [17] = pooled liver microsomes, mouse liver microsomes, 2 μM compound, 0.5 mg/mL microsomes
# [18] = mouse liver microsomes, With Cofactors, 0 min
# [19] = mouse liver microsomes, With Cofactors, 30 min
# [20] = mouse liver microsomes, With Cofactors, 60 min
# [21] = mouse liver microsomes, Without Cofactors, 0 min
# [22] = mouse liver microsomes, Without Cofactors, 30 min
# [23] = mouse liver microsomes, Without Cofactors, 60 min
# [24] = Human liver microsomes, 2 μM, 0.5 mg/mL, NADPH
# [25] = Rat liver microsomes, 2 μM, 0.5 mg/mL, NADPH
# [26] = calcium mobilization FLIPR, stably transfected HEK293 cells, read-out: EC50
# Sequence of human 5-HT2B receptor (P41595 whole entry): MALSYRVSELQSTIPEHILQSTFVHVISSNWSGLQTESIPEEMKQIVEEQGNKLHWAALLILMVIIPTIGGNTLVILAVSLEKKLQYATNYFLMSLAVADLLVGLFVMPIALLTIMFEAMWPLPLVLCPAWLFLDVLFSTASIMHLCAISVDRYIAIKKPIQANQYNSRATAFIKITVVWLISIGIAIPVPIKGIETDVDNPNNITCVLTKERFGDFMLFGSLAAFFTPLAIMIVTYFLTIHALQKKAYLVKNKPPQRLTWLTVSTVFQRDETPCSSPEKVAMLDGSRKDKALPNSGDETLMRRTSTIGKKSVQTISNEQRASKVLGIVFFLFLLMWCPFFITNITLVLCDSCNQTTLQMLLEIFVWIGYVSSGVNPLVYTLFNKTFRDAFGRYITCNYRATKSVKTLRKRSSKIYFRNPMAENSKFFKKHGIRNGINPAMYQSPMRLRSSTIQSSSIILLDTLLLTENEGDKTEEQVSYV
compound,measurement,setting,value
[2H]C([2H])(c1c[nH]c2ccc(OCCCCCN3C(=O)C4CCCCC4C3=O)cc12)[C@H]1CCCN1C([2H])([2H])[2H] (mixture of isomers) [Rac (R) I-248],Predicted hepatic CL,[1]; human liver microsomes,>19.64 mL/min/kg
same,half-life at 2 μM,[1]; [5],< 4.51 min
same,microsomal CLint at 2 μM,[1]; [5],> 307 µL/min/mg
same,Remaining Percentage,[1]; [6],100.00%
same,Remaining Percentage,[1]; [7],0.04%
same,Remaining Percentage,[1]; [8],0.00%
same,Remaining Percentage,[1]; [9],100.00%
same,Remaining Percentage,[1]; [10],100.47%
same,Remaining Percentage,[1]; [11],98.60%
same,CLint scaled at 2 μM,[1]; human liver microsomes,> 385 mL/min/kg
same,half-life at 2 μM,[2]; [12],< 4.51 min
same,microsomal CLint at 2 μM,[2]; [12],> 307 µL/min/mg
same,CLint scaled at 2 μM,[2]; rat liver microsomes,> 550 mL/min/kg
same,Predicted hepatic CL,[2]; rat liver microsomes,>50.17 mL/min/kg
same,Remaining Percentage,"[2]; rat liver microsomes, With Cofactors, 0 min",100.00%
same,Remaining Percentage,[2]; [13],0.95%
same,Remaining Percentage,[2]; [14],0.19%
same,Remaining Percentage,"[2]; rat liver microsomes, Without Cofactors, 0 min",100.00%
same,Remaining Percentage,[2]; [15],94.04%
same,Remaining Percentage,[2]; [16],94.04%
same,half-life at 2 μM,[3]; [17],< 4.51 min
same,microsomal CLint at 2 μM,[3]; [17],> 307 µL/min/mg
same,CLint scaled at 2 μM,[3]; mouse liver microsomes,> 1340 mL/min/kg
same,Predicted hepatic CL,[3]; mouse liver microsomes,>84.35 mL/min/kg
same,Remaining Percentage,[3]; [18],100.00%
same,Remaining Percentage,[3]; [19],0.15%
same,Remaining Percentage,[3]; [20],0.19%
same,Remaining Percentage,[3]; [21],100.00%
same,Remaining Percentage,[3]; [22],99.54%
same,Remaining Percentage,[3]; [23],95.85%
"CSc1ccc2[nH]cc(C[C@H]3CCCN3C)c2c1 [(R) I-1, (R)-3-((1-Methylpyrrolidin-2-yl)methyl)-5-(methylthio)-1H-indole]",Predicted hepatic CL,[1]; Human liver microsomes,16.09 mL/min/kg
same,half-life at 2 μM,[1]; [24],24 min
same,microsomal CLint at 2 μM,[1]; [24],57.7 µL/min/mg
same,CLint scaled at 2 μM,[1]; Human liver microsomes,72.3 mL/min/kg
same,Remaining Percentage (%) 0 min,[1]; [6],100.00%
same,Remaining Percentage (%) 30 min,[1]; [7],50.51%
same,Remaining Percentage (%) 60 min,[1]; [8],17.72%
same,Remaining Percentage (%) 0 min,[1]; [9],100.00%
same,Remaining Percentage (%) 30 min,[1]; [10],101.47%
same,Remaining Percentage (%) 60 min,[1]; [11],97.56%
same,Predicted hepatic CL,[2]; Rat liver microsomes,44.80 mL/min/kg
same,Remaining Percentage (%) 0 min,"[2]; Rat liver microsomes, With Cofactors, 0 min",100.00%
same,Remaining Percentage (%) 30 min,"[2]; Rat liver microsomes, With Cofactors, 30 min",13.67%
same,Remaining Percentage (%) 60 min,"[2]; Rat liver microsomes, With Cofactors, 60 min",0.44%
same,Remaining Percentage (%) 0 min,"[2]; Rat liver microsomes, Without Cofactors, 0 min",100.00%
same,Remaining Percentage (%) 30 min,"[2]; Rat liver microsomes, Without Cofactors, 30 min",93.44%
same,Remaining Percentage (%) 60 min,"[2]; Rat liver microsomes, Without Cofactors, 60 min",95.17%
same,half-life at 2 μM,[2]; [25],10.4 min
same,microsomal CLint at 2 μM,[2]; [25],133 µL/min/mg
same,CLint scaled at 2 μM,[2]; Rat liver microsomes,238 mL/min/kg
same,Predicted hepatic CL,[3]; Mouse liver microsomes,>84.35 mL/min/kg
same,half-life at 2 μM,"[3]; Mouse liver microsomes, 2 μM, 0.5 mg/mL, NADPH, <4.51 if % remaining at 30 min below 1%",< 4.51 min
same,microsomal CLint at 2 μM,"[3]; Mouse liver microsomes, 2 μM, 0.5 mg/mL, NADPH, >307.01 if % remaining at 30 min below 1%",> 307 µL/min/mg
same,CLint scaled at 2 μM,[3]; mouse liver microsomes,> 1340 mL/min/kg
same,Remaining Percentage (%) 0 min,[3]; [18],100.00%
same,Remaining Percentage (%) 30 min,[3]; [19],0.15%
same,Remaining Percentage (%) 60 min,[3]; [20],0.23%
same,Remaining Percentage (%) 0 min,[3]; [21],100.00%
same,Remaining Percentage (%) 30 min,[3]; [22],98.55%
same,Remaining Percentage (%) 60 min,[3]; [23],103.02%
same,pEC50,[4],8.56
same,Emax (% of serotonin),[4]; calcium mobilization FLIPR,62.94 % of serotonin
"COCCN1CCC[C@@H]1Cc1c[nH]c2ccc(OC)cc12 [(R) I-98, (R)-5-Methoxy-3-((1-(2-methoxyethyl)pyrrolidin-2-yl)methyl)-1H-indole]",Predicted hepatic CL,[1]; human liver microsomes,11.72 mL/min/kg
same,half-life at 2 μM,[1]; [5],64.3 min
same,microsomal CLint at 2 μM,[1]; [5],21.6 µL/min/mg
same,Remaining Percentage,[1]; [7],100.00%
same,Remaining Percentage,[1]; [8],67.04%
same,Remaining Percentage,[1]; [10],100.00%
same,Remaining Percentage,[1]; [11],98.21%
same,CLint scaled at 2 μM,[1]; human liver microsomes,27 mL/min/kg
same,half-life at 2 μM,[2]; [12],10 min
same,microsomal CLint at 2 μM,[2]; [12],138 µL/min/mg
same,CLint scaled at 2 μM,[2]; rat liver microsomes,248 mL/min/kg
same,Predicted hepatic CL,[2]; rat liver microsomes,45.13 mL/min/kg
same,Remaining Percentage,[2]; [13],100.00%
same,Remaining Percentage,[2]; [14],14.43%
same,Remaining Percentage,[2]; [15],100.00%
same,Remaining Percentage,[2]; [16],103.23%
same,half-life at 2 μM,[3]; [17],14.4 min
same,microsomal CLint at 2 μM,[3]; [17],96.3 µL/min/mg
same,CLint scaled at 2 μM,[3]; mouse liver microsomes,421 mL/min/kg
same,Predicted hepatic CL,[3]; mouse liver microsomes,74.16 mL/min/kg
same,Remaining Percentage,[3]; [19],100.00%
same,Remaining Percentage,[3]; [20],14.54%
same,Remaining Percentage,[3]; [22],100.00%
same,Remaining Percentage,[3]; [23],100.99%
same,Emax (% of serotonin),[4]; calcium mobilization FLIPR,52.7 % of serotonin
same,pEC50,[4]; [26],8.54
"[2H]C([2H])(c1c[nH]c2ccc(OCCCCCN3C(=O)[C@H]4CCCC[C@H]4C3=O)cc12)[C@H]1CCCN1C([2H])([2H])[2H] [Cis (R) I-248, 2-(5-((3-(((R)-1-(Methyl-d3)pyrrolidin-2-yl)methyl-d2)-1H-indol-5-yl)oxy)pentyl)hexahydro-1H-isoindole-1,3(2H)-dione]",Emax (% of serotonin),[4]; calcium mobilization FLIPR,69.85 % of serotonin
same,pEC50,[4]; [26],7.60
